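These data come from cells grown in 96-well plates and exposed to compound for 48 hours at five concentrations. Abbreviation: GI50, concentration required for 50% inhibition of growth. TGI is the concentration that stops growth completely.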
Columns and labels:
Assay in all cases: NCI anticancer screen, dose series, 48 h
786-0 renal = test system: 786-0 renal
A498 renal = test system: A498 renal
A549 NSCLC = test system: A549 NSCLC
ACHN renal = test system: ACHN renal
BT-549 breast = test system: BT-549 breast
CAKI-1 renal = test system: CAKI-1 renal
CCRF-CEM leukemia = test system: CCRF-CEM leukemia
COLO 205 colon = test system: COLO 205 colon
DU-145 prostate = test system: DU-145 prostate
HCC-2998 colon = test system: HCC-2998 colon
HCT-116 colon = test system: HCT-116 colon
HCT-15 colon = test system: HCT-15 colon
HL-60(TB) leukemia = test system: HL-60(TB) leukemia
HOP-62 NSCLC = test system: HOP-62 NSCLC
HOP-92 NSCLC = test system: HOP-92 NSCLC
HS 578T breast = test system: HS 578T breast
HT29 colon = test system: HT29 colon
IGROV1 ovarian = test system: IGROV1 ovarian
K-562 leukemia = test system: K-562 leukemia
KM12 colon = test system: KM12 colon
LOX IMVI melanoma = test system: LOX IMVI melanoma
M14 melanoma = test system: M14 melanoma
MALME-3M melanoma = test system: MALME-3M melanoma
MCF7 breast = test system: MCF7 breast
MDA-MB-231 breast = test system: MDA-MB-231 breast
MDA-MB-435 = test system: MDA-MB-435
MOLT-4 leukemia = test system: MOLT-4 leukemia
NCI-H226 lung = test system: NCI-H226 lung
NCI-H23 lung = test system: NCI-H23 lung
NCI-H460 lung = test system: NCI-H460 lung
NCI-H522 lung = test system: NCI-H522 lung
NCI/ADR-RES ovarian = test system: NCI/ADR-RES ovarian
OVCAR-3 ovarian = test system: OVCAR-3 ovarian
OVCAR-4 ovarian = test system: OVCAR-4 ovarian
OVCAR-5 ovarian = test system: OVCAR-5 ovarian
OVCAR-8 ovarian = test system: OVCAR-8 ovarian
PC-3 prostate = test system: PC-3 prostate
RPMI-8226 leukemia = test system: RPMI-8226 leukemia
RXF 393 renal = test system: RXF 393 renal
SF-268 CNS = test system: SF-268 CNS
SF-295 CNS = test system: SF-295 CNS
SF-539 CNS = test system: SF-539 CNS
SK-MEL-2 melanoma = test system: SK-MEL-2 melanoma
SK-MEL-28 melanoma = test system: SK-MEL-28 melanoma
SK-MEL-5 melanoma = test system: SK-MEL-5 melanoma
SK-OV-3 ovarian = test system: SK-OV-3 ovarian
SN12C renal = test system: SN12C renal
SNB-19 CNS = test system: SNB-19 CNS
SNB-75 CNS = test system: SNB-75 CNS
SR leukemia = test system: SR leukemia
SW-620 colon = test system: SW-620 colon
T-47D breast = test system: T-47D breast
TK-10 renal = test system: TK-10 renal
U251 CNS = test system: U251 CNS
UACC-257 melanoma = test system: UACC-257 melanoma
UACC-62 melanoma = test system: UACC-62 melanoma
UO-31 renal = test system: UO-31 renal

SMILES: c1ccc(CSc2nnc3c4c5c(sc4nc(-c4cccnc4)n23)CCCCCC5)cc1
- GI50 (786-0 renal): 3.63 µM
- TGI (786-0 renal): 14.2 µM
- GI50 (A498 renal): 2.24 µM
- GI50 (A549 NSCLC): 2.8 µM
- TGI (A549 NSCLC): 13.4 µM
- GI50 (ACHN renal): 2.98 µM
- TGI (ACHN renal): 10.5 µM
- GI50 (BT-549 breast): 2.8 µM
- TGI (BT-549 breast): 9.04 µM
- GI50 (CAKI-1 renal): 3.43 µM
- TGI (CAKI-1 renal): 15.7 µM
- GI50 (CCRF-CEM leukemia): 1.11 µM
- TGI (CCRF-CEM leukemia): 15.5 µM
- GI50 (COLO 205 colon): 1.55 µM
- TGI (COLO 205 colon): 3.33 µM
- GI50 (DU-145 prostate): 3.42 µM
- TGI (DU-145 prostate): 14.4 µM
- GI50 (HCC-2998 colon): 4.21 µM
- TGI (HCC-2998 colon): 15.3 µM
- GI50 (HCT-116 colon): 2.77 µM
- TGI (HCT-116 colon): 11.3 µM
- GI50 (HCT-15 colon): 4.51 µM
- TGI (HCT-15 colon): 17 µM
- GI50 (HL-60(TB) leukemia): 1.84 µM
- TGI (HL-60(TB) leukemia): 5.27 µM
- GI50 (HOP-62 NSCLC): 2.96 µM
- TGI (HOP-62 NSCLC): 12.3 µM
- GI50 (HOP-92 NSCLC): 1.7 µM
- TGI (HOP-92 NSCLC): 7.24 µM
- GI50 (HS 578T breast): 3.84 µM
- TGI (HS 578T breast): 28.6 µM
- GI50 (HT29 colon): 2.78 µM
- TGI (HT29 colon): 10.9 µM
- GI50 (IGROV1 ovarian): 4.18 µM
- TGI (IGROV1 ovarian): 19.2 µM
- GI50 (K-562 leukemia): 2.34 µM
- TGI (K-562 leukemia): 10.4 µM
- GI50 (KM12 colon): 2.6 µM
- TGI (KM12 colon): 10.5 µM
- GI50 (LOX IMVI melanoma): 3.08 µM
- TGI (LOX IMVI melanoma): 11.1 µM
- GI50 (M14 melanoma): 3.75 µM
- TGI (M14 melanoma): 16.9 µM
- GI50 (MALME-3M melanoma): 2.76 µM
- TGI (MALME-3M melanoma): 7.52 µM
- GI50 (MCF7 breast): 2.64 µM
- TGI (MCF7 breast): 11.2 µM
- GI50 (MDA-MB-231 breast): 2.18 µM
- TGI (MDA-MB-231 breast): 7.15 µM
- GI50 (MDA-MB-435): 2.61 µM
- TGI (MDA-MB-435): 9.88 µM
- GI50 (MOLT-4 leukemia): 3 µM
- TGI (MOLT-4 leukemia): 11.3 µM
- GI50 (NCI-H226 lung): 2.03 µM
- TGI (NCI-H226 lung): 9.96 µM
- GI50 (NCI-H23 lung): 2.74 µM
- TGI (NCI-H23 lung): 8.33 µM
- GI50 (NCI-H460 lung): 2.97 µM
- TGI (NCI-H460 lung): 11.1 µM
- GI50 (NCI-H522 lung): 1.39 µM
- TGI (NCI-H522 lung): 5.07 µM
- GI50 (NCI/ADR-RES ovarian): 14.1 µM
- TGI (NCI/ADR-RES ovarian): 38.1 µM
- GI50 (OVCAR-3 ovarian): 2.86 µM
- TGI (OVCAR-3 ovarian): 12.4 µM
- GI50 (OVCAR-4 ovarian): 2.08 µM
- TGI (OVCAR-4 ovarian): 10.2 µM
- GI50 (OVCAR-5 ovarian): 4.99 µM
- TGI (OVCAR-5 ovarian): 17.5 µM
- GI50 (OVCAR-8 ovarian): 2.86 µM
- TGI (OVCAR-8 ovarian): 13.2 µM
- GI50 (PC-3 prostate): 2.36 µM
- TGI (PC-3 prostate): 10.8 µM
- GI50 (RPMI-8226 leukemia): 1.87 µM
- TGI (RPMI-8226 leukemia): 12.5 µM
- GI50 (RXF 393 renal): 2.79 µM
- TGI (RXF 393 renal): 13.1 µM
- GI50 (SF-268 CNS): 4.57 µM
- TGI (SF-268 CNS): 17.8 µM
- GI50 (SF-295 CNS): 2.8 µM
- TGI (SF-295 CNS): 11.8 µM
- GI50 (SF-539 CNS): 3.51 µM
- TGI (SF-539 CNS): 12.9 µM
- GI50 (SK-MEL-2 melanoma): 2.05 µM
- TGI (SK-MEL-2 melanoma): 6.02 µM
- GI50 (SK-MEL-28 melanoma): 3.35 µM
- TGI (SK-MEL-28 melanoma): 14.1 µM
- GI50 (SK-MEL-5 melanoma): 1.37 µM
- TGI (SK-MEL-5 melanoma): 2.68 µM
- GI50 (SK-OV-3 ovarian): 2.75 µM
- TGI (SK-OV-3 ovarian): 9.54 µM
- GI50 (SN12C renal): 2.99 µM
- TGI (SN12C renal): 11.8 µM
- GI50 (SNB-19 CNS): 3.96 µM
- TGI (SNB-19 CNS): 16.2 µM
- GI50 (SNB-75 CNS): 2.58 µM
- TGI (SNB-75 CNS): 10.3 µM
- GI50 (SR leukemia): 2.59 µM
- TGI (SR leukemia): 10.1 µM
- GI50 (SW-620 colon): 3.09 µM
- TGI (SW-620 colon): 13.3 µM
- GI50 (T-47D breast): 0.495 µM
- TGI (T-47D breast): 12.3 µM
- GI50 (TK-10 renal): 3.83 µM
- TGI (TK-10 renal): 12.6 µM
- GI50 (U251 CNS): 2.2 µM
- TGI (U251 CNS): 12 µM
- GI50 (UACC-257 melanoma): 2.12 µM
- TGI (UACC-257 melanoma): 8.74 µM
- GI50 (UACC-62 melanoma): 1.91 µM
- TGI (UACC-62 melanoma): 7.23 µM
- GI50 (UO-31 renal): 3.73 µM
- TGI (UO-31 renal): 15.1 µM

Reference: PubChem BioAssay (NCI)
